# Results reported in the Bradley open melting point set (2014).
row,Structure (SMILES),melting point [°C]
1,CCCOC1CCC2C3CCC4=CC(O)CCC4(C)C3CCC12C (stereo not drawn) [17-propoxyandrost-4-en-3-ol],125
2,"OC(c1ccccc1)(c1ccccc1)C(O)(c1ccccc1)c1ccccc1 [1,1,2,2-Tetraphenylethane-1,2-diol]",171
3,COc1ccc(CBr)c(Cl)c1 [2-chloro-4-methoxybenzyl bromide],57
4,CN1CCC2=C(C1)C(c1ccccc1)c1ccccc12 (stereo not drawn) [phenindamine],91
5,Cc1ccc(C#N)cc1 [4-Methylbenzonitrile],29
6,O=[N+]([O-])c1cc[n+]([O-])c2ccccc12 [4-nitroquinoline n-oxide],155
7,"CN(C)c1ccccc1 [N,N-dimethylaniline]",2
8,Nc1ccc(/C=C/c2ccc([N+](=O)[O-])cc2)c([N+](=O)[O-])c1 [3-nitro-4-[(E)-2-(4-nitrophenyl)ethenyl]aniline],202
9,"OCc1cccc(CO)c1 [1,3-benzenedimethanol]",58
10,"O=c1n(CCO)c(=O)n(CCO)c(=O)n1CCO [1,3,5-tris(2-hydroxyethyl)cyanuric acid]",138
11,O=C(O)C(Br)(Br)Br [tribromoacetic acid],132
12,"O=C(O)c1cc(Cl)c(O)c(Cl)c1 [3,5-dichloro-4-hydroxybenzoic acid]",268
13,C/C(=C/C(=O)O)C(F)(F)F [3-(trifluoromethyl)crotonic acid],29
14,COC(=O)[C@@H]1C2CCC(C[C@@H]1OC(=O)c1ccccc1)N2C (stereo partly drawn) [Cocaine],195
15,Oc1ccc(Oc2ccccc2)cc1 [4-phenoxyphenol],84
16,O=C(O)/C(=C/c1cccc([N+](=O)[O-])c1)c1ccccc1 [(E)-2-phenyl-3-(3-nitrophenyl)propenoic acid],185
17,Nc1ccccc1-c1ccccc1 [2-aminobiphenyl],50
18,CCCCCCCCCCCCI [1-iodododecane],0

# The next lines start with the values.
row,melting point [°C],Structure (SMILES)
1,90,"OB(O)c1cnc(OCc2ccccc2)nc1OCc1ccccc1 [2,4-dibenzyloxypyrimidine-5-boronic acid]"
2,181,CN(C)c1ccc(/N=N/c2ccccc2C(=O)O)cc1 [methyl red]
3,122,"Nc1cccc(N)n1 [2,6-diaminopyridine]"
4,124,Nc1cccc(O)c1 [3-aminophenol]
5,97,CCCCCCCCCCOc1ccc(C(=O)O)cc1 [4-n-decyloxybenzoic acid]
6,146,OB(O)c1cc2ccccc2nc1Cl [2-chloroquinoline-3-boronic acid]
7,109,CC(C)CB(O)O [isobutylboronic acid]
8,135,CC(=O)Oc1ccccc1C(=O)O [Acetylsalicylic acid]
9,-62,COC(=O)CC(=O)OC [Dimethyl malonate]
10,105,Cc1ccccc1C(=O)O [o-toluic_acid]
11,23,COC(=O)c1cc(F)ccc1N [methyl 2-amino-5-fluorobenzoate]
12,82,CCOC(=O)C1=CC(C)N=N1 (stereo not drawn) [Ethyl 5-methyl-1H-pyrazole-3-carboxylate]
13,126,O=C(O)c1ccccc1CO [o-hydroxymethyl_benzoic_acid]
14,90,"COC(=O)C1Cc2ccccc2C(=O)O1 (stereo not drawn) [methyl 1-oxo-3,4-dihydro-1H-isochromene-3-carboxylate]"
15,279,COc1cc2nc(N3CCN(C(=O)c4ccco4)CC3)nc(N)c2cc1OC [Prazosin]
16,118,O=C(N[C@H](CO)C(=O)O)OCc1ccccc1 [N-benzyloxycarbonyl-D-serine]
17,15,CCCCCC(=O)CCCCC [6-undecanone]
18,156,CC(=O)Nc1ccc(Cl)cc1F [4'-chloro-2'-fluoroacetanilide]
19,59,O=C(O)CCCCc1ccccc1 [5-phenylvaleric acid]
20,180,CC1(C)[C@H]2CC[C@]1(C)C(=O)C2 [Camphor]
